# Reference: patent US10092000B2, “Structure, synthesis, and applications for oligo phenylene ethynylenes (OPEs)” (STC.UNM, priority 2010, dated 2018)
# Several values for one entry are separate records, joined by “and”; a condition that tells them apart may be missing. Equal values may be shown once. Entries after “also recorded” stand apart in the source; their conditions may differ.
# Key:
# Solubility in solvents = format: physicochemical
# [1] = test system: E.coli, S.epidermis, and S.aureus; experiment: Dead/live assays, biocidal activity stated without singling out a bacterium; format: cell-based; settings: UV irradiation
# Method: (§1) Dead/live assays were performed to test the biocidal activity of EO-OPE-1(C3, A), EO-OPE-1 (C2, A), EO-OPE-1 (C3, S) and EO-OPE-1 (Th, C3, A) against E.coli, S.epidermis, and S.aureus. E.coli, S.epidermis, and S.aureus were cultured in 50 mL of Difco™ Nutrient broth (LOT 4057492, Becton, Dickinson and Company, Sparks, Md. 21152 USA), Difco™ Nutrient broth (LOT 4057492, Becton, Dickinson and Company, Sparks, Md. 21152 USA), and BBL™ Brain Heart Infusion (LOT 8263271, Becton, Dickinson and Company, Sparks, Md. 21152 USA), respectively, for 18 h at 37° C. under shaking. The bacteria were collected by centrifuging 50 mL of culture at 4,000 rpm in an Eppendorf centrifuge for 15 min at 4° C. The pellet was re-suspended with the assistance of vortex in 25 mL of 0.85% NaCl solution and repelleted. The wash cycle was repeated twice. Bacterial concentrations were measured and normalized using a disposal hemocytometer (INCYTO Co., Ltd), counts being 2.5˜3.0×10^7/mL. The diluted bacteria suspension was added to 1.5 mL of black and transparent microtubes in aliquots of 500 μL for dark and light samples, respectively. Three groups of live controls were prepared with cells suspended in black microtubes, transparent microtubes, and quartz cuvettes at the same concentrations, but without chemicals. These bacteria samples were titrated by OPEs with various concentrations followed by staying in dark for dark samples/controls and exposing to UV irradiation in a photoreactor chamber for light samples/controls with certain duration.
# (§2) Dead/live assays were carried out using two sets of stains: SYTO 9/Propidium iodide for E.coli and SYTO 24/Propidium iodide for S.epidermis and S.aureus. SYTO 9 and SYTO 24 are cell membrane permeant nucleic acid stains with green (˜498 nm for SYTO 9 and ˜515 nm for SYTO 24) fluorescence and used to stain both live and dead cells; Propidium iodide is a red-fluorescent nucleic acid stain that is membrane impermeable to viable cells but stains DNA or RNA of dead cells with comprised membranes and emits red (˜617 nm) fluorescence, indicating cell death. Upon the completion of the above treatment, a 1 to 1 ratio mixture of the two dyes was prepared and added into the samples (2.4 μL mixed dyes for 500 μL suspension) and incubated for 15 minutes in the dark. Bacteria were then examined under a 40× oil objective on a Zeiss LSM 510 Meta confocal laser scanning microscope and an Accuri C6 flow cytometer to identify and quantify those live and dead bacteria.
# [2] = Absorption and fluorescence spectroscopy; format: physicochemical; settings: for absorbance intensity after 30 min relative to that measured at 1 min: 10 μM in H2O
# Method: (§3) Photophysical study. For the absorption and fluorescence spectroscopy, we prepared a stock solution with concentration of 1 mM oligomer and 10% v/v solution of DMSO in H2O. 30 μL of the sonicated suspension of each EO-OPE-1 was diluted into 3 mL solution in a quartz cuvette to give a concentration of 10 μM. Absorption and fluorescence were performed on plate reader (SpectroMax M-5 microplate reader, Molecular Devices) at 24° C. Transient absorption spectra were recorded for EO-OPE-1 samples in both methanol and water. Transient absorption spectra were collected using laser systems that are described elsewhere 1, 2. The optical density was adjusted to 0.7 at the excitation wavelength (355 nm) with the laser energy being 6-7 mJ. Solutions were purged with argon for […] before making transient absorption spectroscopy measurements.
# [3] = Transient absorption spectroscopy (triplet state); format: physicochemical
# Method: as §3
# Singlet oxygen generation. Excited triplet state (ETS) plays an essential role in the generation of ROS and 1O2. […] Another important point to note is that all members of EO-OPE-1 series underwent fast photobleaching in water during TA experiments (approximately 40-50% reduction in signal intensity). To minimize the error due to photobleaching, fresh samples were prepared and used in each run. […] On the other hand, the triplet lifetimes for EO-OPE-1(C3, A), EO-OPE-1 (C2, A), EO-OPE-1 (C3, S), and EO-OPE-1 (Th, C3, A) are 5.2 μs, 17.9 μs, 18.7 μs, and 7.2 μs, respectively. Based on the above discussions, we would expect C will give a higher yield of 1O2, with lower yields for EO-OPE-1 (C2, A), EO-OPE-1(C3, A), and EO-OPE-1 (C3, S).
# [4] = test system: MS2 and T4 bacteriophages; experiment: Antiviral activity, general statement; format: cell-based
# bacteriophage MS2 = experiment: Phage inactivation, phage titer (PFU), MS2; format: cell-based; settings: 10 ug/ml, UV-light, 1 hour
# Method: (§4) Bacteriophage Preparation and Titer. E. coli cells were grown in the standard Luria broth. The fresh E. coli culture was inoculated from an overnight culture followed by approximately three hours incubation at 37° C. to the exponential growth phase (O.D.600˜0.5). At this growth phase, the E. coli cells were collected by centrifuge and washed with Escherichia coli minimal medium (Glucose 5 g/L, Na2HPO4 6 g/L, KH2PO4 3 g/L, NH4Cl 1 g/L, NaCl 0.5 g/L, MgSO4, 0.12 g/L, CaCl2 0.01 g/L, pH 7.2) twice. The cell pellet was resuspended with minimal medium. The phage stock solutions were added into their corresponding bacterial host suspensions the phage-bacteria mixture incubated for 15 minutes at 37° C. for infection. The phage-bacteria mixture was transferred into fresh Escherichia coli minimal medium and incubated overnight for viral replication. […] The phage titer was determined by plaque forming units (PFU). […] After 6˜8 hours incubation, the plaque forming units were counted and phage solutions were diluted to 10^6˜10^7 PFU/ml with the minimal medium for further use.
# (§5) Phage Inactivation. […] The viral inactivation ability was determined by phage titer as stated above and calculated by log (N0/N), where N is the PFU of the phage solution after exposure to CPEs/OPEs; N0 represents the PFU of corresponding negative control (without CPEs, OPEs or UV-irradiation). […]
# S.epidermis = experiment: Dead/live assay, biocidal activity against S.epidermis; format: cell-based, Staphylococcus epidermis; settings: under 365 nm radiation
# Method: (§6) Dead/live assays were performed to test the biocidal activity of EO-OPE-1(C3, A), EO-OPE-1 (C2, A), EO-OPE-1 (C3, S) and EO-OPE-1 (Th, C3, A) against E.coli, S.epidermis, and S.aureus. E.coli, S.epidermis, and S.aureus were cultured in 50 mL of Difco™ Nutrient broth (LOT 4057492, Becton, Dickinson and Company, Sparks, Md. 21152 USA), Difco™ Nutrient broth (LOT 4057492, Becton, Dickinson and Company, Sparks, Md. 21152 USA), and BBL™ Brain Heart Infusion (LOT 8263271, Becton, Dickinson and Company, Sparks, Md. 21152 USA), respectively, for 18 h at 37° C. under shaking. The bacteria were collected by centrifuging 50 mL of culture at 4,000 rpm in an Eppendorf centrifuge for 15 min at 4° C. […] Bacterial concentrations were measured and normalized using a disposal hemocytometer (INCYTO Co., Ltd), counts being 2.5˜3.0×10^7/mL. […]
# (§7) Dead/live assays were carried out using two sets of stains: SYTO 9/Propidium iodide for E.coli and SYTO 24/Propidium iodide for S.epidermis and S.aureus. SYTO 9 and SYTO 24 are cell membrane permeant nucleic acid stains with green (˜498 nm for SYTO 9 and ˜515 nm for SYTO 24) fluorescence and used to stain both live and dead cells; Propidium iodide is a red-fluorescent nucleic acid stain that is membrane impermeable to viable cells but stains DNA or RNA of dead cells with comprised membranes and emits red (˜617 nm) fluorescence, indicating cell death. […]
# S.aureus = experiment: Dead/live assay, biocidal activity against S.aureus; format: cell-based; settings: for killing of S. aureus: under 365 nm radiation; for light activated death of S. aureus: light and dark conditions, 0.1 to 5 μg/mL, various time points (FIGS. 22-25)
# Method: as §1, §2
# Experiments similar to those described in Example 1 above were performed using TM and OPE1-DABCO against S. Aureus. FIG. 22 is a graph showing TM vs. 7×10^7/mL S. aureus under light and dark conditions at concentrations of 0.1 and 1 μg/mL and at various time points (5, 10, 15, 30, 45, and 60 minutes). FIG. 23 is a graph showing EO-OPE1-DABCO vs 6×10^7/mL S. aureus under light and dark conditions at different concentrations of 0.1, 1, and 5 μg/mL and at various time points. FIG. 24 is a graph showing EO-OPE1-DABCO vs S. Aureus under light and dark conditions at a concentration of 1 μg/mL and at various time points. FIG. 25 is a graph showing EO-OPE1-DABCO vs S. Aureus under light and dark conditions at different concentrations of 0.1 and 1 μg/mL and at various time points.
# E.coli = experiment: Dead/live assay, biocidal activity against E.coli; format: cell-based; settings: under 365 nm radiation
# Method: as §6, §7
# MS2 phage = experiment: TEM of viral morphology damage, MS2; design: species or system Bacteriophage MS2; settings: 50 ug/ml, dark and irradiated (FIGS. 34, 36, 38, 40)
# Method: (§8) Transmission Electron Microscopy. High concentration of model viruses (˜10^11 PFU/ml for T4 phage, ˜10^12 PFU/ml for MS2 phage) and CPE/OPE (50 ug/ml) was used for TEM imaging (TEM images were generated in the UNM Electron Microscopy Shared Facility using a Hitachi H7500 transmission electron microscope.) Phage samples were prepared by adding 5 uL phage solutions onto carbon-coated copper grids (freshly cleaned by plasma cleaner) and standing for 2 minutes then rinsing with pure water. The negative stain, 2% aqueous solution of uranyl acetate, was adding onto the grids and standing for 2 minutes, the excess stain was removed by filter paper. The grid was dried in air.
# bacteriophage T4 = experiment: Phage inactivation, phage titer (PFU), T4; format: cell-based; settings: 10 ug/ml, in the dark, 1 hour
# Method: as §4, §5
# T4 phage = experiment: TEM of viral morphology damage, T4; design: species or system Bacteriophage T4; settings: 50 ug/ml, dark and irradiated (FIGS. 33, 35, 37, 39)
# Method: as §8
smiles,measurement,setting,value
"C[N+](C)(C)CCOc1ccc(C#Cc2ccc(C#Cc3ccc(OCC[N+](C)(C)C)cc3)cc2)cc1.[I-].[I-] [EO-OPE-1 (C2, A)]",solubility in CH3OH,Solubility in solvents,moderately soluble
same,solubility in DMF and DMSO,Solubility in solvents,quite soluble
same,solubility in water,Solubility in solvents,poorly soluble
same,light-induced biocidal activity,[1],dramatic light-induced biocidal activity
same,absorbance intensity after 30 min relative to that measured at 1 min,[2],the same
same,Fluorescence quantum yields(Φf)*,[2]; in water,0.59 ± 0.05
same,"transient absorption (TA) intensity, comparison in words",[3],comparable
same,τ3/intensity in H2O,[3]; in H2O,0.065
same,τ3/λmax(nm) in H2O,[3]; in H2O,541 nm
same,τ3/μs in H2O (triplet lifetime),[3]; in H2O,17.9 μs and 18.7 μs
"C[N+](C)(C)CCCOc1ccc(C#Cc2ccc(C#Cc3ccc(OCCC[N+](C)(C)C)cc3)cc2)cc1.[I-].[I-] [EO-OPE-1 (C3, A)]",solubility in CH3OH,Solubility in solvents,moderately soluble
same,solubility in DMF and DMSO,Solubility in solvents,quite soluble
same,solubility in water,Solubility in solvents,poorly soluble
same,light-induced biocidal activity,[1],dramatic light-induced biocidal activity
same,antiviral activity,[4],significant antiviral activity
same,absorbance intensity after 30 min relative to that measured at 1 min,[2],around 2 times
same,Fluorescence quantum yields(Φf)*,[2]; in water,0.52 ± 0.05
same,Fluorescence quantum yields(Φf)*,[2]; in water; A),0.59
same,inactivation of MS2 phage in the presence of UV irradiation,bacteriophage MS2,enhanced inactivation
same,"transient absorption (TA) intensity, comparison in words",[3],comparable
same,τ3/intensity in H2O,[3]; in H2O,0.07
same,τ3/λmax(nm) in H2O,[3]; in H2O,545 nm
same,τ3/μs in H2O (triplet lifetime),[3]; in H2O,17.9 μs
same,τ3/μs in H2O (triplet lifetime),[3]; in H2O; A),5.2 μs
"O=S(=O)([O-])CCCOc1ccc(C#Cc2ccc(C#Cc3ccc(OCCCS(=O)(=O)[O-])cc3)cc2)cc1.[Na+].[Na+] [EO-OPE-1 (C3, S)]",solubility in CH3OH,Solubility in solvents,moderately soluble
same,solubility in DMF and DMSO,Solubility in solvents,quite soluble
same,solubility in water,Solubility in solvents,poorly soluble
same,light-induced biocidal activity,[1],dramatic light-induced biocidal activity; also recorded: relatively poor light-induced biocidal activity
same,absorbance intensity after 30 min relative to that measured at 1 min,[2],1.5 times
same,Fluorescence quantum yields(Φf)*,[2]; in water,0.46 and 0.50 ± 0.07
same,killing of S. epidermis,S.epidermis,kill
same,"transient absorption (TA) intensity, comparison in words",[3],comparable
same,τ3/intensity in H2O,[3]; in H2O,0.06
same,τ3/λmax(nm) in H2O,[3]; in H2O,543 nm
same,killing of S. aureus,S.aureus,kill
same,killing of E. coli,E.coli,kill
"C[N+](C)(C)CCCOc1ccc(C#Cc2ccc(C#Cc3ccc(OCCC[N+](C)(C)C)cc3)s2)cc1.[I-].[I-] [EO-OPE-1 (Th, C3, A)]",solubility in CH3OH,Solubility in solvents,moderately soluble
same,solubility in DMF and DMSO,Solubility in solvents,quite soluble
same,solubility in water,Solubility in solvents,poorly soluble
same,morphology of treated MS2 phage by TEM,MS2 phage,Obvious morphology change
same,dark antiviral activity against T4 phage,bacteriophage T4,significant dark antiviral activity
same,morphology of treated T4 phage by TEM,T4 phage,serious damage
same,light-induced biocidal activity,[1],dramatic light-induced biocidal activity
same,antiviral activity,[4],significant antiviral activity
same,absorbance intensity after 30 min relative to that measured at 1 min,[2],the same
same,Fluorescence quantum yields(Φf)*,[2]; in water,0.50 and 0.46 ± 0.02
same,killing of S. epidermis,S.epidermis,kill
same,"transient absorption (TA) intensity, comparison in words",[3],highest TA intensity
same,τ3/intensity in H2O,[3]; in H2O,0.15
same,τ3/λmax(nm) in H2O,[3]; in H2O,510 nm
same,τ3/μs in H2O (triplet lifetime),[3]; in H2O,7.2 μs
same,log killing against S. aureus,"S.aureus; concentration as low as 5 ng/mL, half hour irradiation",5 log
same,killing of S. aureus,S.aureus,kill
same,killing of E. coli,E.coli,kill
CCCCCC[N+]12CC[N+](CCCOc3ccc(C#Cc4ccc(C#Cc5ccc(OCCC[N+]67CC[N+](CCCCCC)(CC6)CC7)cc5)cc4)cc3)(CC1)CC2.[Br-].[Br-].[Br-].[Br-] [EO-OPE-1-DABCO],light activated death of S. aureus,S.aureus,light activated death is clearly demonstrated
COc1cc(C#Cc2ccc(C#Cc3ccc(OCCC[N+](C)(C)C)cc3)cc2)cc(OC)c1OC.[I-] [TM],light activated death of S. aureus,S.aureus,light activated death is clearly demonstrated
